Source: US4468511A, “C-20- And C-23-Modified macrolide derivatives” (Eli Lilly and Company, priority 1983, dated 1984)
≈ marks a conversion by molar mass, not a printed value. Read-outs that look alike come from different tables or passages of the source.

Tests used:
[1] = test system: Mycoplasma gallisepticum 34159; assay: MIC, conventional broth-dilution microtiter test; assay type: cell-based; conditions: Mycoplasmoides gallisepticum
Procedure, shortened: (§1)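 Method depends on organism. Klebsiella pneumoniae was assayed on agar. Pasteurella spp. and Mycoplasma gallisepticum were assayed in broth microtiter dilution.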

Streptococcus sp. 80 = assay: MIC, conventional broth-dilution microtiter test; assay type: cell-based
Experimental: (§2) Certain of the derivatives are active against some gram-negative bacteria, such as Pasteurella species. The MIC's in Table II were determined by standard agar-dilution assays. The MIC's in Table III were obtained using a conventional broth-dilution microtiter test.

[2] = test system: Pasteurella multocida 60A; assay: MIC, conventional broth-dilution microtiter test; assay type: cell-based
Procedure, shortened: as §1

[3] = test system: Mycoplasma gallisepticum 41313; assay: MIC, conventional broth-dilution microtiter test; assay type: cell-based; conditions: Mycoplasmoides gallisepticum
Procedure, shortened: as §1

[4] = test system: Pasteurella multocida 17E; assay: MIC, conventional broth-dilution microtiter test; assay type: cell-based
Procedure, shortened: as §1

[5] = test system: Pasteurella hemolytica 23C; assay: MIC, conventional broth-dilution microtiter test; assay type: cell-based
Procedure, shortened: as §1

Mycoplasma synoviae = assay: MIC, conventional broth-dilution microtiter test; assay type: cell-based; conditions: Mycoplasmopsis synoviae
Procedure, shortened: (§3)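 Agar plates containing graded compound levels gave the Klebsiella value. Graded broth dilutions in microtiter plates gave the Pasteurella and Mycoplasma values.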

[6] = test system: Pasteurella multocida 68C; assay: MIC, conventional broth-dilution microtiter test; assay type: cell-based
Procedure, shortened: as §1

[7] = test system: Pasteurella multocida 40G; assay: MIC, conventional broth-dilution microtiter test; assay type: cell-based
Procedure, shortened: as §1

Mycoplasma hyorhinis = assay: MIC, conventional broth-dilution microtiter test; assay type: cell-based
Procedure, shortened: as §3

[8] = test system: Pasteurella hemolytica 22C; assay: MIC, conventional broth-dilution microtiter test; assay type: cell-based
Procedure, shortened: as §1

[9] = test system: Pasteurella hemolytica 41D; assay: MIC, conventional broth-dilution microtiter test; assay type: cell-based
Procedure, shortened: as §1

Mycoplasma gallisepticum = assay: MIC, conventional broth-dilution microtiter test; assay type: cell-based; conditions: Mycoplasmoides gallisepticum
Procedure, shortened: as §1

[10] = test system: Pasteurella multocida 22A; assay: MIC, conventional broth-dilution microtiter test; assay type: cell-based
Procedure, shortened: as §1

Staphylococcus aureus = assay: MIC, conventional broth-dilution microtiter test; assay type: cell-based
Experimental: as §2

[11] = test system: Staphylococcus aureus S13E; assay: microbe, parasite or virus in culture; assay type: cell-based
Experimental: (§4) The MIC's in Table II were determined by standard agar-dilution assays. The MIC's in Table III were obtained using a conventional broth-dilution microtiter test.

[12] = test system: Staphylococcus epidermidis EPI1; assay: microbe, parasite or virus in culture; assay type: cell-based; conditions: Staphylococcus epidermidis, EPI1
Experimental: as §4

Pasteurella multocida = assay: Pasteurella infection in one-day old chicks; assay type: in vivo; conditions: subcutaneous, 30 mg/kg × 2, 1 and 4 hours post-challenge
Experimental: Certain of the formula 1 compounds of this invention have also shown in vivo activity against infections induced by gram-negative bacteria. Table V summarizes the results of tests in which illustrative compounds were evaluated against a Pasteurella infection in one-day old chicks. The compounds were administered parenterally after challenge of the chicks with Pasteurella multocida (0.1 ml of a 10^-4 dilution of a twenty-hour tryptose broth culture of an avian P. multocida given subcutaneously). In these tests, unless indicated otherwise, all non-medicated infected chicks died within 24 hours of Pasteurella challenge. In the tests summarized in Table V, the compounds were administered by subcutaneous injection at a dosage of 30 mg/kg, 1 and 4 hours post-challenge of the chicks with P. multocida.

[13] = test system: Streptococcus pyogenes 9960; assay: MIC, standard agar-dilution assay; assay type: cell-based
Experimental: as §2

Escherichia coli EC14 = assay: MIC, standard agar-dilution assay; assay type: cell-based; conditions: Escherichia coli, EC14
Experimental: as §2

Escherichia coli TEM = assay: MIC, standard agar-dilution assay; assay type: cell-based; conditions: Escherichia coli
Procedure, shortened: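 Antibacterial activity toward the gram-negative organism Escherichia coli was assessed by conventional agar dilution. The MIC, reported in ug/mL, is the minimum compound concentration on agar that prevents growth.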

[14] = test system: Klebsiella pneumoniae KAE; assay: MIC, standard agar-dilution assay; assay type: cell-based
Procedure, shortened: as §1

[15] = test system: Staphylococcus aureus X1.1; assay: MIC, standard agar-dilution assay; assay type: cell-based; conditions: Staphylococcus aureus, X1.1
Procedure, shortened: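 A standard agar-dilution assay was used to test compounds against the Staphylococcus aureus isolate X1.1. Bacterial growth on agar with different compound concentrations was assessed, and the minimum inhibitory concentration was recorded in ug/mL.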

[16] = test system: Staphylococcus aureus V41; assay: MIC, standard agar-dilution assay; assay type: cell-based
Experimental: as §2

[17] = test system: Streptococcus Group D X66; assay: MIC, standard agar-dilution assay; assay type: cell-based
Experimental: as §2

[18] = test system: Streptococcus pneumoniae Park I; assay: MIC, standard agar-dilution assay; assay type: cell-based; conditions: Streptococcus pneumoniae
Experimental: as §2

[19] = test system: Streptococcus pyogenes C203; assay: MIC, standard agar-dilution assay; assay type: cell-based
Experimental: as §2

[20] = test system: Klebsiella pneumoniae X26; assay: MIC, standard agar-dilution assay; assay type: cell-based; conditions: Klebsiella pneumoniae, X26
Procedure, shortened: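 Two formats were used. Broth dilution in microtiter plates served for Pasteurella and Mycoplasma, while agar dilution served for Klebsiella.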

[21] = test system: Streptococcus pyogenes C203; assay: Protection of mice experimentally infected with S. pyogenes C203; assay type: in vivo
Experimental: Some of the derivatives of this invention have shown in vivo antimicrobial activity against experimentally-induced infections in laboratory animals. When two doses of test compound were administered to mice experimentally infected with S. pyogenes C203, the activity observed was measured as an ED50 value [effective dose in mg/kg to protect 50% of the test animals: see Warren Wick, et al., J. Bacteriol. 81, 233-235 (1961)].

[22] = test system: Staphylococcus aureus X400; assay: MIC, standard agar-dilution assay; assay type: cell-based; conditions: Staphylococcus aureus, X400
Experimental: as §4

[23] = test system: Staphylococcus epidermidis EPI2; assay: MIC, standard agar-dilution assay; assay type: cell-based; conditions: Staphylococcus epidermidis, EPI2
Experimental: as §4

[24] = test system: Haemophilus influenzae 76; assay: MIC, standard agar-dilution assay; assay type: cell-based
Experimental: as §4

[25] = test system: Haemophilus influenzae C.L.; assay: MIC, standard agar-dilution assay; assay type: cell-based; conditions: Haemophilus influenzae
Experimental: as §4

`CCC1OC(=O)CC(O)C(C)C(OC2OC(C)C(O)C(N(C)C)C2O)C(CCOC(=O)Cc2ccccc2)CC(C)C(=O)C=CC(C)=CC1CO` (centres unmarked) [Compound 1, 20-O-Phenylacetyl-20-dihydro-OMT] was tested, and the MIC [1]; 34159 was 6.25 mg/L (≈ 8.71 µM), the MIC (Streptococcus sp. 80; Streptococcus, SP.80) was 3.12 mg/L (≈ 4.35 µM) and the MIC ([2]; Pasteurella multocida, 60A) was 25 mg/L (≈ 34.8 µM). The MIC [3]; 41313 was 50 mg/L (≈ 69.6 µM), the MIC ([4]; Pasteurella multocida, 17E) was 12.5 mg/L (≈ 17.4 µM) and the MIC ([5]; Pasteurella, 23C) was 12.5 mg/L (≈ 17.4 µM). For the same compound, the MIC (Mycoplasma synoviae) was 50 mg/L (≈ 69.6 µM), the MIC ([6]; Pasteurella multocida, 68C) was 6.25 mg/L (≈ 8.71 µM) and the MIC ([7]; Pasteurella multocida, 40G) was 25 mg/L (≈ 34.8 µM). For the same compound, the MIC (Mycoplasma hyorhinis; Mycoplasma) was > 50 mg/L, the MIC ([8]; Pasteurella, 22C) was 25 mg/L (≈ 34.8 µM) and the MIC ([9]; Pasteurella, 41D) was 12.5 mg/L (≈ 17.4 µM). For the same compound, the MIC (Mycoplasma gallisepticum) was 3.12 mg/L (≈ 4.35 µM), the MIC ([10]; Pasteurella multocida, 22A) was 25 mg/L (≈ 34.8 µM) and the MIC (Staphylococcus aureus) was 3.12 mg/L (≈ 4.35 µM). The MIC [11] was 1 mg/L (≈ 1.39 µM), the MIC [12] was 0.5 mg/L (≈ 0.696 µM) and the “Number of Deaths/Number Treated” value (Pasteurella multocida) was 9/10. It also gave an MIC [13]; 9960 of 2 mg/L (≈ 2.79 µM), an MIC (Escherichia coli EC14) of 64 mg/L (≈ 89.1 µM) and an MIC (Escherichia coli TEM) of 16 mg/L (≈ 22.3 µM). For the same compound, the MIC ([14]; Klebsiella pneumoniae) was > 128 mg/L, the MIC [15] was 1 mg/L (≈ 1.39 µM) and the MIC ([16]; Staphylococcus aureus, V41) was 1 mg/L (≈ 1.39 µM). It also gave an MIC [17] of 2 mg/L (≈ 2.79 µM), an MIC [18] of 0.5 mg/L (≈ 0.696 µM) and an MIC ([19]; Streptococcus pyogenes, C203) of 1 mg/L (≈ 1.39 µM). For the same compound, the MIC [20] was 4 mg/L (≈ 5.57 µM), the ED50 ([21]; C203, po, read-out: ED50 Oral) was > 100 mg/kg and the ED50 ([21]; C203, sc, read-out: ED50 Subcutaneous) was > 30 mg/kg. For the same compound, the MIC [22] was 2 mg/L (≈ 2.79 µM), the MIC [23] was 1 mg/L (≈ 1.39 µM) and the MIC ([24]; Haemophilus influenzae, 76) was 16 mg/L (≈ 22.3 µM). It also gave an MIC [25] of 16 mg/L (≈ 22.3 µM).
For `CCC1OC(=O)CC(O)C(C)C(OC2OC(C)C(O)C(N(C)C)C2O)C(CCNCc2ccccc2)CC(C)C(=O)C=CC(C)=CC1CO` (centres unmarked) [Compound 4, 20-N-Benzylamino-20-deoxy-20-dihydro-OMT], the MIC ([1]; broth-dilution microtiter, Mycoplasma gallisepticum 34159, Resistant strain, read-out: MIC) was 50 mg/L (≈ 72.6 µM), the MIC (Streptococcus sp. 80; broth-dilution microtiter, Streptococcus sp. 80, read-out: MIC) was 6.25 mg/L (≈ 9.07 µM) and the MIC ([2]; broth-dilution microtiter, Pasteurella multocida 60A, Avian isolate, read-out: MIC) was 3.12 mg/L (≈ 4.53 µM). It also gave an MIC ([3]; broth-dilution microtiter, Mycoplasma gallisepticum 41313, Resistant strain, read-out: MIC) of 50 mg/L (≈ 72.6 µM), an MIC ([4]; broth-dilution microtiter, Pasteurella multocida 17E, Bovine isolate, read-out: MIC) of 3.12 mg/L (≈ 4.53 µM) and an MIC ([5]; broth-dilution microtiter, Pasteurella hemolytica 23C, read-out: MIC) of 6.25 mg/L (≈ 9.07 µM). The MIC (Mycoplasma synoviae; broth-dilution microtiter, Mycoplasma synoviae, read-out: MIC) was 12.5 mg/L (≈ 18.1 µM), the MIC ([6]; broth-dilution microtiter, Pasteurella multocida 68C, read-out: MIC) was 3.12 mg/L (≈ 4.53 µM) and the MIC ([7]; broth-dilution microtiter, Pasteurella multocida 40G, read-out: MIC) was 6.25 mg/L (≈ 9.07 µM). The MIC (Mycoplasma hyorhinis; broth-dilution microtiter, Mycoplasma hyorhinis, read-out: MIC) was 50 mg/L (≈ 72.6 µM), the MIC ([8]; broth-dilution microtiter, Pasteurella hemolytica 22C, read-out: MIC) was 6.25 mg/L (≈ 9.07 µM) and the MIC ([9]; broth-dilution microtiter, Pasteurella hemolytica 41D, read-out: MIC) was 6.25 mg/L (≈ 9.07 µM). For the same compound, the MIC (Mycoplasma gallisepticum; broth-dilution microtiter, Mycoplasma gallisepticum, read-out: MIC) was 3.12 mg/L (≈ 4.53 µM), the MIC ([10]; broth-dilution microtiter, Pasteurella multocida 22A, read-out: MIC) was 12.5 mg/L (≈ 18.1 µM) and the MIC (Staphylococcus aureus; broth-dilution microtiter, read-out: MIC) was 12.5 mg/L (≈ 18.1 µM). The MIC [11] was 8 mg/L (≈ 11.6 µM), the MIC [12] was 4 mg/L (≈ 5.81 µM) and the “Number of Deaths/Number Treated” value (Pasteurella multocida) was 1/10. It also gave an MIC ([13]; agar-dilution, Streptococcus 9960, read-out: MIC) of 32 mg/L (≈ 46.5 µM), an MIC (Escherichia coli EC14) of 128 mg/L (≈ 186 µM) and an MIC (Escherichia coli TEM) of 8 mg/L (≈ 11.6 µM). The MIC ([14]; agar-dilution, Klebsiella pneumoniae KAE, read-out: MIC) was > 128 mg/L, the MIC [15] was 8 mg/L (≈ 11.6 µM) and the MIC ([16]; agar-dilution, Staphylococcus aureus V41, Penicillin-resistant strain, read-out: MIC) was 16 mg/L (≈ 23.2 µM). It also gave an MIC [17] of 16 mg/L (≈ 23.2 µM), an MIC [18] of 2 mg/L (≈ 2.9 µM) and an MIC ([19]; agar-dilution, Streptococcus pyogenes C203, read-out: MIC) of 4 mg/L (≈ 5.81 µM). The MIC [20] was 8 mg/L (≈ 11.6 µM), the ED50 ([21]; C203, mice, oral, mg/kg × 2, doses given 1 and 4 hours postinfection, read-out: ED50 Oral) was > 100 mg/kg and the ED50 ([21]; C203, sc, mice, subcutaneous, mg/kg × 2, doses given 1 and 4 hours postinfection, read-out: ED50 Subcutaneous) was 16.1 mg/kg. The MIC [22] was 32 mg/L (≈ 46.5 µM), the MIC [23] was 32 mg/L (≈ 46.5 µM) and the MIC ([24]; agar-dilution, Haemophilus influenzae 76, Ampicillin-resistant strain, read-out: MIC) was 2 mg/L (≈ 2.9 µM). The MIC [25] was 2 mg/L (≈ 2.9 µM).
